Reference: patent publication US9775843B2, “Treatment and/or prophylaxis of TSPO mediated diseases and/or disorders” (GRÜNENTHAL GMBH, priority 2012, dated 2017)

biological target: T1, rat peripheral BZD receptor (Rattus norvegicus, UniProt P16257); assay: radioligand binding test, [3H]PK 11195, rat heart membranes; conditions: 10 μM test compound; 0.2 nM [3H]PK 11195; rat heart membrane homogenates; 15 min at 22° C.
T1 construct: rat heart membranes and [3H]PK 11195; from tissue; host or cells: rat heart membrane homogenates
Method: Evaluation of the in vitro affinity of test substances for the rat peripheral BZD receptor was performed according to Le Fur et al. (1983). Life Sci., 33: 449-457. For this purpose, rat heart membranes and [3H]PK 11195 (1-(2-chlorophenyl)-N-methyl-N-(1-methylpropyl)-3-isoquinolinecarboxamide) were used in a radioligand binding test system.
In detail, membrane homogenates of heart (20 μg protein) are incubated for 15 min at 22° C. with 0.2 nM [3H]PK 11195 in the absence or presence of the test compound in a buffer containing 50 mM Tris-HCl (pH 7.4) and 10 mM MgCl2 (96-well plate format). Compound addition is 100× solution in solvent. Nonspecific binding is determined in the presence of 10 μM PK 11195. Following incubation, the samples are filtered rapidly under vacuum through glass fiber filters (GF/B, Packard) presoaked with 0.3% PEI and rinsed several times with ice-cold 50 mM Tris-HCl using a 96-sample cell harvester (Unifilter, Packard). The filters are dried, then counted for radioactivity in a scintillation counter (Topcount, Packard) using a scintillation cocktail (Microscint 0, Packard). The results are expressed as a percent inhibition of the control radioligand specific binding.
The standard reference compound is PK 11195, which is tested in each experiment concurrently with the test compounds.
For analysis, the specific ligand binding to the receptors is defined as the difference between the total binding and the nonspecific binding determined in the presence of an excess of unlabelled ligand. The results are expressed as a percent of control specific binding ((measured specific binding/control specific binding)×100) obtained in the presence of the test compounds.

inhibition at 10 µM | Structure (SMILES)
87% | Cc1c(C(=O)NCc2cccc(F)c2)c(C(C)C)nc2cc(C(F)(F)F)ccc12 [compound 1, N-[(3-Fluorophenyl)-methyl]-2-isopropyl-4-methyl-7-(trifluoromethyl)-quinoline-3-carboxylic acid amide]
43% | CCSc1nc(N2CCOCC2)cc(C)c1C(=O)NCCCC(C)(C)C [compound 2, N-(4,4-Dimethyl-pentyl)-2-ethylsulfanyl-4-methyl-6-morpholin-4-yl-pyridine-3-carboxylic acid amide]
91% | CCSc1nc(N2CCOCC2)cc(C)c1C(=O)NCc1ccc(Cl)cc1 [compound 3, N-[(4-Chlorophenyl)-methyl]-2-ethylsulfanyl-4-methyl-6-morpholin-4-yl-pyridine-3-carboxylic acid amide]
49% | COc1nc(N2CCOCC2)cc(C)c1C(=O)NCc1ccc(Cl)cc1 [compound 4, N-[(4-Chlorophenyl)-methyl]-2-methoxy-4-methyl-6-morpholin-4-yl-pyridine-3-carboxylic acid amide]
102% | O=C(NCc1ccc(F)cc1)c1cccnc1SCCC(F)(F)c1ccc(F)cc1 [compound 5, 2-[[3,3-Difluoro-3-(4-fluorophenyl)-propyl]sulfanyl]-N-[(4-fluorophenyl)-methyl]-pyridine-3-carboxylic acid amide]
99% | O=C(NCC1CC2CCC1C2)c1cccnc1SCCC(F)(F)c1ccc(F)cc1 (stereo not drawn) [compound 6, N-(5-Bicyclo[2.2.1]heptanyl-methyl)-2-[[3,3-difluoro-3-(4-fluorophenyl)-propyl]sulfanyl]-pyridine-3-carboxylic acid amide]
57% | Cc1cc(N2CCOCC2)nc(C2CC2)c1C(=O)NCc1ccc(Cl)cc1 [compound 7, N-[(4-Chlorophenyl)-methyl]-2-cyclopropyl-4-methyl-6-morpholin-4-yl-pyridine-3-carboxylic acid amide]
103% | COc1nc(N2CCOCC2)cc(C)c1C(=O)NCc1cccc(F)c1 [compound 8, N-[(3-Fluorophenyl)-methyl]-2-methoxy-4-methyl-6-morpholin-4-yl-pyridine-3-carboxylic acid amide]
53% | COc1nc(N2CCOCC2)cc(C)c1C(=O)NCc1ccc(F)cc1 [compound 9, N-[(4-Fluorophenyl)-methyl]-2-methoxy-4-methyl-6-morpholin-4-yl-pyridine-3-carboxylic acid amide]
91% | CCCc1nc(N2CCOCC2)cc(C)c1C(=O)NCc1cccc(F)c1 [compound 10, N-[(3-Fluorophenyl)-methyl]-4-methyl-6-morpholin-4-yl-2-propyl-pyridine-3-carboxylic acid amide]
87% | Cc1cc(N2CCOCC2)nc(C2CC2)c1C(=O)NCc1ccc(F)cc1 [compound 11, 2-Cyclopropyl-N-[(4-fluorophenyl)-methyl]-4-methyl-6-morpholin-4-yl-pyridine-3-carboxylic acid amide]
97% | CC(C)CCNC(=O)c1cccnc1SCCC(F)(F)c1ccc(F)c(F)c1 [compound 12, 2-[[3-(3,4-Difluoro-phenyl)-3,3-difluoro-propyl]-sulfanyl]-N-(3-methyl-butyl)-pyridine-3-carboxylic acid amide]
95% | CCSc1nc(N2CCOCC2)cc(C)c1C(=O)NCc1cccc(F)c1 [compound 13, 2-Ethylsulfanyl-N-[(3-fluorophenyl)-methyl]-4-methyl-6-morpholin-4-yl-pyridine-3-carboxylic acid amide]
90% | Cc1cc(N2CCOCC2)nc(C2CC2)c1C(=O)NCc1cccc(F)c1 [compound 15, 2-Cyclopropyl-N-[(3-fluorophenyl)-methyl]-4-methyl-6-morpholin-4-yl-pyridine-3-carboxylic acid amide]
96% | CC(C)CCNC(=O)c1cccnc1SCCC(F)(F)c1ccc(F)cc1 [compound 16, 2-[[3,3-Difluoro-3-(4-fluorophenyl)-propyl]sulfanyl]-N-(3-methyl-butyl)-pyridine-3-carboxylic acid amide]
